Measured values: patent USRE48461E1, “Modulation of androgen receptor expression” (Ionis Pharmaceuticals, Inc., priority 2012, dated 2021)

Columns and labels:
Assay type in all cases: cell-based, human
AR mRNA = assay: AR RNA expression in LNCaP cells (complete, CSS, CSS+DHT medium); conditions: for Percent expression of AR in LNCaP cells cultured in CSS + DHT medium: CSS + DHT (1 nM) medium; for Percent expression of AR in LNCaP cells cultured in CSS + DHT medium / Percent expression of AR in LNCaP cells cultured in CSS medium: 48 hrs; for Percent expression of AR in LNCaP cells cultured in complete medium: 48 hours
Description: Cells were plated at 1,000 cells per well. […] After an incubation period of 48 hours, RNA levels of AR, PSA and TMPRSS2 were measured.
(§1) Cells were plated at 2,000 cells per well and cultured in phenol red-free RPMI supplemented with 5% charcoal stripped serum (Gibco) media for 16 hours. […] After an incubation period of 4 hrs, DHT was added to the medium to a final concentration of 1 nM as indicated. RNAs were collected 48 hrs later and levels of AR, PSA and TMPRSS2 were measured.

22RV1 cells = assay: 22RV1 apoptosis (Caspase-glo 3/7); conditions: 72 hours; for Apoptosis (% untreated control): 22RV1 cells
Description: After a treatment period of 72 hours in complete medium or CSS+DHT medium, apoptosis of the cancer cells was measured with Caspase-glo 3/7 assay kit (Promega). Results are presented in Tables 131 and 132 as percent apoptosis of the cells, relative to non-treated cells.

TMPRSS2 mRNA = assay: TMPRSS2 expression in VCaP cells; conditions: RNAiMax, 48 hrs
Description: Cells were plated at 10,000 cells per well. […] After an incubation period of 48 hrs, RNA levels of full length AR, the V7 variant, PSA and TMPRSS2 were measured.
After an incubation period of 48 hrs, RNA levels of full length AR, the V7 variant, PSA and TMPRSS2 were measured. The data is presented in Tables 108 expressed as percent expression of gene levels compared to the untreated control.
Cells were plated at 15,000 cells per well and cultured in CSS media for 16 hours. […] After 4 hrs, 1 nM DHT was added. […] After an incubation period of 48 hrs, RNA levels of AR, PSA and TMPRSS2 were measured.

PSA mRNA [1] = assay: PSA expression in 22RV1 cells; conditions: RNAiMax, 48 hrs
Description: Cells were plated at 1,000 cells per well. […] After an incubation period of 48 hrs, RNA levels of full length AR, the V7 variant, PSA and TMPRSS2 were measured.
After an incubation period of 48 hrs, RNA levels of full length AR, the V7 variant, PSA and TMPRSS2 were measured.
Cells were plated at 2,000 cells per well and cultured in CSS media for 16 hours. […] After 4 hrs, 1 nM DHT was added. […] After an incubation period of 48 hrs, RNA levels of AR, AR V7 variant, PSA and TMPRSS2 were measured.

AR V7 variant mRNA = assay: AR V7 variant RNA in 22RV1 cells; conditions: RNAiMax, 48 hrs
PSA mRNA [2] = assay: PSA expression in LNCaP cells (complete, CSS+DHT medium); conditions: for Percent inhibition of PSA expression in LNCaP cells cultured in CSS + DHT medium: CSS + DHT (1 nM) medium, 48 hrs; for Percent inhibition of PSA expression in LNCaP cells cultured in complete medium: 48 hours
Description: Cells were plated at 1,000 cells per well. […] ISIS 549148 was included as a negative control. […] After an incubation period of 48 hours, RNA levels of AR, PSA and TMPRSS2 were measured.
as §1, with “hours. […] ISIS 549148 was included as a negative control.” for “hours.”, “measured. In the absence of DHT, AR expression in LNCaP cells was 95%, PSA expression was 7% and TMPRSS2 expression was 24% compared to the untreated control.” for “measured.”

PSA mRNA [3] = assay: PSA expression in C4-2 cells; conditions: 48 hrs; for Percent inhibition of PSA expression: C4-2 cells, CSS + DHT medium
Description: Cells were plated at 1,000 cells per well. […] After an incubation period of 48 hrs, RNA levels of AR, PSA and TMPRSS2 were measured.
Cells were plated at 2,000 cells per well and cultured in CSS media with 1 nM DHT. […] After an incubation period of 48 hrs, RNA levels of AR, PSA and TMPRSS2 were measured.

C4-2 cells = assay: C4-2 cell proliferation (complete or CSS+DHT medium); conditions: 5 days; for Proliferation (% untreated control): C4-2 cells
Description: After a treatment period of 5 days in complete medium or CSS+1 nM DHT medium, the proliferative capacity of the cancer cells was measured with using CellTiter 96® AQueous One Solution or CellTiter-Glo® Cell Proliferation kit (Promega), following the manufacturer's instructions. […] The proliferative capacity of cells cultured in CSS medium without DHT is 17% of untreated control levels.

TGATTTAATGGTTGCA [ISIS 569236] (cEt/MOE gapmer chemistry, further chemistry not given here) [targets intron 1]
Percent expression of AR in LNCaP cells cultured in CSS + DHT medium (AR mRNA; 0.04 μM): 104%
Percent expression of AR in LNCaP cells cultured in CSS + DHT medium (AR mRNA; 0.2 μM): 86%
Percent expression of AR in LNCaP cells cultured in CSS + DHT medium (AR mRNA; 1 μM): 55%
Percent expression of AR in LNCaP cells cultured in CSS + DHT medium (AR mRNA; 5.0 μM): 21%
Percent expression of AR in LNCaP cells cultured in CSS medium (AR mRNA; 0.04 μM): 94%
Percent expression of AR in LNCaP cells cultured in CSS medium (AR mRNA; 0.2 μM): 66%
Percent expression of AR in LNCaP cells cultured in CSS medium (AR mRNA; 1 μM): 35%
Percent expression of AR in LNCaP cells cultured in CSS medium (AR mRNA; 5.0 μM): 13%
Percent expression of AR in LNCaP cells cultured in complete medium (AR mRNA; 0.04 μM): 98%
Percent expression of AR in LNCaP cells cultured in complete medium (AR mRNA; 0.2 μM): 90%
Percent expression of AR in LNCaP cells cultured in complete medium (AR mRNA; 1 μM): 47%
Percent expression of AR in LNCaP cells cultured in complete medium (AR mRNA; 5.0 μM): 20%
Apoptosis (% untreated control) (22RV1 cells; CSS + DHT medium, 1.34 nM): 127 % untreated control
Apoptosis (% untreated control) (22RV1 cells; CSS + DHT medium, 4.0 nM): 106 % untreated control
Apoptosis (% untreated control) (22RV1 cells; CSS + DHT medium, 13.4 nM): 257 % untreated control
Apoptosis (% untreated control) (22RV1 cells; CSS + DHT medium, 40 nM): 1136 % untreated control
Apoptosis (% untreated control) (22RV1 cells; complete medium, 1.34 nM): 91 % untreated control
Apoptosis (% untreated control) (22RV1 cells; complete medium, 4.0 nM): 141 % untreated control
Apoptosis (% untreated control) (22RV1 cells; complete medium, 13.4 nM): 333 % untreated control
Apoptosis (% untreated control) (22RV1 cells; complete medium, 40 nM): 1452 % untreated control
apoptosis of 22RV1 cells (22RV1 cells; complete or CSS+DHT medium): increased apoptosis of the cells in a dose dependent compared to the control
Percent inhibition of TMPRSS2 expression (TMPRSS2 mRNA; CSS + DHT medium, 1.34 nM): 6%
Percent inhibition of TMPRSS2 expression (TMPRSS2 mRNA; CSS + DHT medium, 4.0 nM): 19%
Percent inhibition of TMPRSS2 expression (TMPRSS2 mRNA; CSS + DHT medium, 13.4 nM): 40%
Percent inhibition of TMPRSS2 expression (TMPRSS2 mRNA; CSS + DHT medium, 40 nM): 54%
Percent inhibition of TMPRSS2 expression (TMPRSS2 mRNA; complete medium, 1.34 nM): 0%
Percent inhibition of TMPRSS2 expression (TMPRSS2 mRNA; complete medium, 4.0 nM): 0%
Percent inhibition of TMPRSS2 expression (TMPRSS2 mRNA; complete medium, 13.4 nM): 0%
Percent inhibition of TMPRSS2 expression (TMPRSS2 mRNA; complete medium, 40 nM): 36%
Percent inhibition of PSA expression (PSA mRNA [1]; CSS + DHT medium, 1.34 nM): 28%
Percent inhibition of PSA expression (PSA mRNA [1]; CSS + DHT medium, 4.0 nM): 49%
Percent inhibition of PSA expression (PSA mRNA [1]; CSS + DHT medium, 13.4 nM): 70%
Percent inhibition of PSA expression (PSA mRNA [1]; complete medium, 1.34 nM): 0%
Percent inhibition of PSA expression (PSA mRNA [1]; complete medium, 4.0 nM): 17%
Percent inhibition of PSA expression (PSA mRNA [1]; complete medium, 13.4 nM): 25%
Percent inhibition of PSA expression (PSA mRNA [1]; complete medium, 40 nM): 7%
Percent inhibition of AR V7 variant (AR V7 variant mRNA; CSS + DHT medium, 1.34 nM): 54%
Percent inhibition of AR V7 variant (AR V7 variant mRNA; CSS + DHT medium, 4.0 nM): 88%
Percent inhibition of AR V7 variant (AR V7 variant mRNA; CSS + DHT medium, 13.4 nM): 97%
Percent inhibition of AR V7 variant (AR V7 variant mRNA; complete medium, 1.34 nM): 30%
Percent inhibition of AR V7 variant (AR V7 variant mRNA; complete medium, 4.0 nM): 2%
Percent inhibition of AR V7 variant (AR V7 variant mRNA; complete medium, 13.4 nM): 46%
Percent inhibition of AR V7 variant (AR V7 variant mRNA; complete medium, 40 nM): 81%
Percent inhibition of PSA expression in LNCaP cells cultured in CSS + DHT medium (PSA mRNA [2]; 0.04 μM): 4%
Percent inhibition of PSA expression in LNCaP cells cultured in CSS + DHT medium (PSA mRNA [2]; 0.2 μM): 11%
Percent inhibition of PSA expression in LNCaP cells cultured in CSS + DHT medium (PSA mRNA [2]; 1 μM): 45%
Percent inhibition of PSA expression in LNCaP cells cultured in CSS + DHT medium (PSA mRNA [2]; 5.0 μM): 59%
Percent inhibition of PSA expression in LNCaP cells cultured in complete medium (PSA mRNA [2]; 0.04 μM): 0%
Percent inhibition of PSA expression in LNCaP cells cultured in complete medium (PSA mRNA [2]; 0.2 μM): 19%
Percent inhibition of PSA expression in LNCaP cells cultured in complete medium (PSA mRNA [2]; 1 μM): 63%
Percent inhibition of PSA expression in LNCaP cells cultured in complete medium (PSA mRNA [2]; 5.0 μM): 81%
Percent inhibition of PSA expression (PSA mRNA [3]; 0.04 μM): 0%
Percent inhibition of PSA expression (PSA mRNA [3]; 0.2 μM): 4%
Percent inhibition of PSA expression (PSA mRNA [3]; 1 μM): 57%
Percent inhibition of PSA expression (PSA mRNA [3]; 5.0 μM): 64%
Percent inhibition of PSA expression in C4-2 cells cultured in complete medium (PSA mRNA [3]; 0.04 μM): 35%
Percent inhibition of PSA expression in C4-2 cells cultured in complete medium (PSA mRNA [3]; 0.2 μM): 62%
Percent inhibition of PSA expression in C4-2 cells cultured in complete medium (PSA mRNA [3]; 1 μM): 83%
Percent inhibition of PSA expression in C4-2 cells cultured in complete medium (PSA mRNA [3]; 5.0 μM): 88%
Proliferation (% untreated control) (C4-2 cells; CSS + DHT medium, 0.04 μM): 99 % untreated control
Proliferation (% untreated control) (C4-2 cells; CSS + DHT medium, 0.2 μM): 99 % untreated control
Proliferation (% untreated control) (C4-2 cells; CSS + DHT medium, 1 μM): 88 % untreated control
Proliferation (% untreated control) (C4-2 cells; CSS + DHT medium, 5.0 μM): 51 % untreated control
Proliferation (% untreated control) (C4-2 cells; complete medium, 0.04 μM): 103 % untreated control
Proliferation (% untreated control) (C4-2 cells; complete medium, 0.2 μM): 81 % untreated control
Proliferation (% untreated control) (C4-2 cells; complete medium, 1 μM): 57 % untreated control
Proliferation (% untreated control) (C4-2 cells; complete medium, 5.0 μM): 58 % untreated control
proliferation of C4-2 cells (C4-2 cells; complete medium or CSS+1 nM DHT): reduced proliferation of the cells in a dose dependent manner compared to the control
